According to PubChem BioAssay (NCI):
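Cells were grown in 96-well plates and exposed to each compound for 48 hours at five concentrations; endpoints were interpolated linearly between bracketing concentrations, or set to the highest concentration if not reached. TGI is the concentration that stops growth completely.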

How the values were obtained:
Test in all cases: NCI-60 cell line screen, 48 h
[1] = system: NCI/ADR-RES ovarian
[2] = system: K-562 leukemia
[3] = system: HS 578T breast
[4] = system: NCI-H226 lung
[5] = system: MOLT-4 leukemia
[6] = system: PC-3 prostate
[7] = system: HOP-62 NSCLC
[8] = system: RXF 393 renal
[9] = system: SR leukemia
[10] = system: HCT-116 colon
[11] = system: OVCAR-4 ovarian
[12] = system: SN12C renal
[13] = system: SK-OV-3 ovarian
[14] = system: UACC-257 melanoma
[15] = system: ACHN renal
[16] = system: LOX IMVI melanoma
[17] = system: 786-0 renal
[18] = system: MDA-N
[19] = system: HCC-2998 colon
[20] = system: KM12 colon
[21] = system: SNB-75 CNS
[22] = system: SF-295 CNS
[23] = system: SK-MEL-28 melanoma
[24] = system: NCI-H460 lung
[25] = system: COLO 205 colon
[26] = system: SK-MEL-5 melanoma
[27] = system: A549 NSCLC
[28] = system: HT29 colon
[29] = system: CAKI-1 renal
[30] = system: SF-268 CNS
[31] = system: OVCAR-8 ovarian
[32] = system: CCRF-CEM leukemia
[33] = system: HOP-92 NSCLC
[34] = system: MDA-MB-435
[35] = system: MALME-3M melanoma
[36] = system: SW-620 colon
[37] = system: IGROV1 ovarian
[38] = system: DU-145 prostate
[39] = system: RPMI-8226 leukemia
[40] = system: UACC-62 melanoma
[41] = system: OVCAR-5 ovarian
[42] = system: BT-549 breast
[43] = system: U251 CNS
[44] = system: MCF7 breast
[45] = system: HCT-15 colon
[46] = system: TK-10 renal
[47] = system: NCI-H23 lung
[48] = system: M14 melanoma
[49] = system: NCI-H522 lung
[50] = system: EKVX NSCLC
[51] = system: OVCAR-3 ovarian
[52] = system: SNB-19 CNS
[53] = system: MDA-MB-231 breast
[54] = system: A498 renal
[55] = system: T-47D breast
[56] = system: SF-539 CNS
[57] = system: HL-60(TB) leukemia
[58] = system: SK-MEL-2 melanoma
[59] = system: UO-31 renal

SMILES: CCOC(=O)/C(=C\c1c[nH]c2ccccc12)P(=O)(OCC)OCC
- TGI [1]: > 100 µM
- TGI [2]: > 100 µM
- TGI [3]: > 100 µM
- TGI [4]: 77.5 µM
- TGI [5]: > 100 µM
- TGI [6]: 66.6 µM
- TGI [7]: > 100 µM
- TGI [8]: > 100 µM
- TGI [9]: 61.1 µM
- TGI [10]: > 100 µM
- TGI [11]: 89.4 µM
- TGI [12]: > 100 µM
- TGI [13]: 90.4 µM
- TGI [14]: > 100 µM
- TGI [15]: > 100 µM
- TGI [16]: 40.3 µM
- TGI [17]: 99.6 µM
- TGI [18]: > 100 µM
- TGI [19]: > 100 µM
- TGI [20]: > 100 µM
- TGI [21]: 75.6 µM
- TGI [22]: > 100 µM
- TGI [23]: 94.3 µM
- TGI [24]: 61.9 µM
- TGI [25]: 44.1 µM
- TGI [26]: > 100 µM
- TGI [27]: > 100 µM
- TGI [28]: 77.5 µM
- TGI [29]: > 100 µM
- TGI [30]: > 100 µM
- TGI [31]: 53.5 µM
- TGI [32]: 66.9 µM
- TGI [33]: 77.1 µM
- TGI [34]: > 100 µM
- TGI [35]: > 100 µM
- TGI [36]: > 100 µM
- TGI [37]: > 100 µM
- TGI [38]: > 100 µM
- TGI [39]: 76.8 µM
- TGI [40]: > 100 µM
- TGI [41]: 87.9 µM
- TGI [42]: 62.7 µM
- TGI [43]: > 100 µM
- TGI [44]: > 100 µM
- TGI [45]: 72.6 µM
- TGI [46]: > 100 µM
- TGI [47]: 71.5 µM
- TGI [48]: > 100 µM
- TGI [49]: 89.9 µM
- TGI [50]: > 100 µM
- TGI [51]: 59.9 µM
- TGI [52]: > 100 µM
- TGI [53]: 68.4 µM
- TGI [54]: 76.1 µM
- TGI [55]: > 100 µM
- TGI [56]: 43.6 µM
- TGI [57]: 62 µM

SMILES: NC1=NC(c2ccc(Cl)cc2)=CC(c2cccc(Cl)c2)S1 (centres undefined)
- TGI [1]: > 100 µM
- TGI [2]: > 100 µM
- TGI [3]: 66.7 µM
- TGI [4]: 71.9 µM
- TGI [5]: > 100 µM
- TGI [6]: > 100 µM
- TGI [7]: > 100 µM
- TGI [8]: 77.1 µM
- TGI [9]: 72.5 µM
- TGI [10]: > 100 µM
- TGI [11]: 60.5 µM
- TGI [12]: 85.2 µM
- TGI [13]: > 100 µM
- TGI [14]: 81.7 µM
- TGI [15]: 59.9 µM
- TGI [16]: 99.1 µM
- TGI [58]: 55.5 µM
- TGI [17]: > 100 µM
- TGI [18]: 52.9 µM
- TGI [19]: 80.9 µM
- TGI [20]: > 100 µM
- TGI [59]: 84.6 µM
- TGI [22]: > 100 µM
- TGI [24]: > 100 µM
- TGI [25]: 33.1 µM
- TGI [26]: 80.7 µM
- TGI [27]: 87.2 µM
- TGI [28]: > 100 µM
- TGI [29]: 92.5 µM
- TGI [30]: > 100 µM
- TGI [31]: > 100 µM
- TGI [32]: > 100 µM
- TGI [33]: 60.1 µM
- TGI [34]: 38.9 µM
- TGI [35]: > 100 µM
- TGI [36]: > 100 µM
- TGI [37]: > 100 µM
- TGI [38]: > 100 µM
- TGI [39]: 44 µM
- TGI [40]: 51.4 µM
- TGI [41]: > 100 µM
- TGI [42]: > 100 µM
- TGI [43]: 55.5 µM
- TGI [44]: > 100 µM
- TGI [45]: 33.2 µM
- TGI [46]: 60.7 µM
- TGI [47]: > 100 µM
- TGI [48]: > 100 µM
- TGI [49]: 55.8 µM
- TGI [50]: 96.9 µM
- TGI [51]: > 100 µM
- TGI [52]: 44.9 µM
- TGI [55]: > 100 µM
- TGI [56]: > 100 µM
- TGI [57]: > 100 µM

SMILES: CC(C)(C)OC(=O)N(O)CCCn1cnc2c(NC3CC3)ncnc21
- TGI [1]: > 100 µM
- TGI [2]: > 100 µM
- TGI [3]: > 100 µM
- TGI [4]: > 100 µM
- TGI [5]: > 100 µM
- TGI [6]: > 100 µM
- TGI [7]: > 100 µM
- TGI [8]: > 100 µM
- TGI [9]: > 100 µM
- TGI [10]: > 100 µM
- TGI [11]: > 100 µM
- TGI [12]: > 100 µM
- TGI [13]: > 100 µM
- TGI [14]: > 100 µM
- TGI [15]: > 100 µM
- TGI [16]: > 100 µM
- TGI [58]: > 100 µM
- TGI [17]: > 100 µM
- TGI [18]: > 100 µM
- TGI [19]: > 100 µM
- TGI [20]: > 100 µM
- TGI [59]: > 100 µM
- TGI [21]: > 100 µM
- TGI [22]: > 100 µM
- TGI [23]: > 100 µM
- TGI [24]: > 100 µM
- TGI [25]: > 100 µM
- TGI [26]: > 100 µM
- TGI [27]: > 100 µM
- TGI [28]: > 100 µM
- TGI [29]: > 100 µM
- TGI [30]: > 100 µM
- TGI [31]: > 100 µM
- TGI [32]: > 100 µM
- TGI [33]: > 100 µM
- TGI [34]: > 100 µM
- TGI [35]: > 100 µM
- TGI [36]: > 100 µM
- TGI [37]: > 100 µM
- TGI [38]: > 100 µM
- TGI [39]: > 100 µM
- TGI [40]: > 100 µM
- TGI [41]: > 100 µM
- TGI [42]: > 100 µM
- TGI [43]: > 100 µM
- TGI [44]: > 100 µM
- TGI [45]: > 100 µM
- TGI [46]: > 100 µM
- TGI [47]: > 100 µM
- TGI [48]: > 100 µM
- TGI [49]: > 100 µM
- TGI [50]: > 100 µM
- TGI [51]: > 100 µM
- TGI [52]: > 100 µM
- TGI [53]: > 100 µM
- TGI [54]: > 100 µM
- TGI [55]: > 100 µM
- TGI [56]: > 100 µM

SMILES: O=c1[nH][nH]c(=O)n1Cc1ccccc1
- TGI [1]: > 100 µM
- TGI [2]: > 100 µM
- TGI [3]: > 100 µM
- TGI [4]: > 100 µM
- TGI [5]: > 100 µM
- TGI [6]: > 100 µM
- TGI [8]: > 100 µM
- TGI [9]: > 100 µM
- TGI [10]: > 100 µM
- TGI [11]: > 100 µM
- TGI [12]: > 100 µM
- TGI [13]: > 100 µM
- TGI [14]: > 100 µM
- TGI [16]: > 100 µM
- TGI [58]: > 100 µM
- TGI [17]: > 100 µM
- TGI [18]: > 100 µM
- TGI [19]: > 100 µM
- TGI [20]: > 100 µM
- TGI [59]: > 100 µM
- TGI [21]: > 100 µM
- TGI [23]: > 100 µM
- TGI [24]: > 100 µM
- TGI [25]: > 100 µM
- TGI [26]: > 100 µM
- TGI [27]: > 100 µM
- TGI [28]: > 100 µM
- TGI [29]: > 100 µM
- TGI [30]: > 100 µM
- TGI [31]: > 100 µM
- TGI [32]: > 100 µM
- TGI [34]: > 100 µM
- TGI [35]: > 100 µM
- TGI [36]: > 100 µM
- TGI [38]: > 100 µM
- TGI [39]: > 100 µM
- TGI [40]: > 100 µM
- TGI [41]: > 100 µM
- TGI [42]: > 100 µM
- TGI [43]: > 100 µM
- TGI [44]: > 100 µM
- TGI [45]: > 100 µM
- TGI [46]: > 100 µM
- TGI [47]: > 100 µM
- TGI [48]: > 100 µM
- TGI [49]: > 100 µM
- TGI [50]: > 100 µM
- TGI [51]: > 100 µM
- TGI [52]: > 100 µM
- TGI [53]: > 100 µM
- TGI [54]: > 100 µM
- TGI [55]: > 100 µM
- TGI [56]: > 100 µM
- TGI [57]: > 100 µM
